Consider one molecule from ChEMBL document CHEMBL4385604, “Identification of Pyrrolo[2,3- d]pyrimidine-Based Derivatives as Potent and Orally Effective Fms-like Tyrosine Receptor Kinase 3 (FLT3) Inhibitors for Treating Acute Myelogenous Leukemia” (J Med Chem, 2019).

Each structure is given as a SMILES string. A value given as a limit tells only on which side of the number the result lay.

Series [1] is described as follows: Toxicity in NOD/SCID mouse xenografted with human MV4-11 cells at 1 to 3 mg/kg, po qd for 14 days. The format is organism-based. Conditions: in vivo, 336 h. Background: Xenograft models place foreign cells or tissue in a host animal.
A further series has as its system MV4-11. Description: Cell cycle arrest in human MV4-11 cells assessed as accumulation at S phase at 3 nM after 24 hrs by propidium iodide staining-based flow cytometric analysis (reference value: 30.12%). The series is classed as functional. (Flow cytometry measures light scatter and fluorescence of single cells or particles in a stream.)
In series [2] the target is T1, Receptor-type tyrosine-protein kinase FLT3 (Homo sapiens, UniProt P36888).
T1 sequence (P36888 whole entry): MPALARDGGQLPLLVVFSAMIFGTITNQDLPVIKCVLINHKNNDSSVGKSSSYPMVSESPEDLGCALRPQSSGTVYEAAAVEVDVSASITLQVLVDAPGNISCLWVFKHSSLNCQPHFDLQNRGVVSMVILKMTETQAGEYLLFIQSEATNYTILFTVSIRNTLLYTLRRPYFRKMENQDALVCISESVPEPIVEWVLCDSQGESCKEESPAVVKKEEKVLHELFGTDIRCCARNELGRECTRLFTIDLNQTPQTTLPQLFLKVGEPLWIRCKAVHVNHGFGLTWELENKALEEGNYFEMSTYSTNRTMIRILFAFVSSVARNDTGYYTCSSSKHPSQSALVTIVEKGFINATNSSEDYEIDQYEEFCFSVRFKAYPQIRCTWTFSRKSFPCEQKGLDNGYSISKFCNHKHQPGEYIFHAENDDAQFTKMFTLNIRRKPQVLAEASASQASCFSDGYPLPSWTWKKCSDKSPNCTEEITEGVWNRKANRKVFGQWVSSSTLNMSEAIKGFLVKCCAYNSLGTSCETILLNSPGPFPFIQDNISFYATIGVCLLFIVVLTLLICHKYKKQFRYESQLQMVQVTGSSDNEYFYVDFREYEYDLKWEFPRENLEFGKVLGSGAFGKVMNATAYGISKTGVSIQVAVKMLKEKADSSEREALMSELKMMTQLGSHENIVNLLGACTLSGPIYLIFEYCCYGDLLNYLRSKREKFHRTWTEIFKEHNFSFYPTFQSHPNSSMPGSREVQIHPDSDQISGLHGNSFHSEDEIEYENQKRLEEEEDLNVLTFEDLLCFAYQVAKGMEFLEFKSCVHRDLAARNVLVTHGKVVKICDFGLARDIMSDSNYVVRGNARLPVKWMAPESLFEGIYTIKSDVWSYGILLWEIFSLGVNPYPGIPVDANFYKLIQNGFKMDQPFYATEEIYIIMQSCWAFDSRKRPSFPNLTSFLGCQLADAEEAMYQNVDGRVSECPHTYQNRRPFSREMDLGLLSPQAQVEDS
Kind of series: Binding affinity to wild-type human partial length FLT3 (V592 to Y969 residues) expressed in Escherichia coli after 1 hr by qPCR analysis. For orientation: Quantitative PCR measures a nucleic acid by following its amplification.

A further series deals with HL-60. Description: Antiproliferative activity against human HL60 cells harboring wild-type FLT3 measured after 72 hrs by MTT assay. The following applies: HL-60, 72 h. The format is functional, cell-based.
In series [3] the test system is MOLM-13. Kind of series: Induction of apoptosis in human MOLM13 cells assessed as early apoptotic cells at 100 nM after 48 hrs by Annexin V/propidium iodide staining based flow cytometry (reference value: 5.97%). The series is classed as functional.
The test system of series [4] is MOLM-13. Description: Induction of apoptosis in human MOLM13 cells assessed as early apoptotic cells at 1 uM after 48 hrs by Annexin V/propidium iodide staining based flow cytometry (reference value: 5.97%). The format is functional.
Series [5] deals with MOLM-13. Description: Cell cycle arrest in human MOLM13 cells assessed as accumulation at G0/G1 phase at 3 nM after 24 hrs by propidium iodide staining-based flow cytometric analysis (reference value: 44.53%). The format is functional.
The test system of series [6] is MOLM-13. Description: Cell cycle arrest in human MOLM13 cells assessed as accumulation at G2/M phase at 30 nM after 24 hrs by propidium iodide staining-based flow cytometric analysis (reference value: 13.52%). The format is functional.
Series [7] deals with MOLM-13. Description: Induction of apoptosis in human MOLM13 cells assessed as viable cells at 10 uM after 48 hrs by Annexin V/propidium iodide staining based flow cytometry (reference value: 88.2%). The format is functional. The following applies: MOLM-13, 48 h, read-out: Activity.
Series [8] has as its system MOLM-13. Description: Induction of apoptosis in human MOLM13 cells assessed as early apoptotic cells at 10 nM after 48 hrs by Annexin V/propidium iodide staining based flow cytometry (reference value: 5.97%). The series is classed as functional.
The species named for a further series is Homo sapiens. Description: Inhibition of MAPK in human MOLM13 cells assessed as ratio of phosphorylated ERK to beta-actin level at 30 nM after 2 hrs by Western blot analysis relative to control. The series is classed as cell-based.
Series [9] has as its system MOLM-13. Kind of series: Cell cycle arrest in human MOLM13 cells assessed as accumulation at S phase at 10 nM after 24 hrs by propidium iodide staining-based flow cytometric analysis (reference value: 41.95%). The format is functional.
Series [10] deals with T1, Receptor-type tyrosine-protein kinase FLT3.

As usually defined, the Kd is the constant that tells how readily two partners part at equilibrium. Lower therefore signals higher affinity. The IC50 is the point on the concentration scale where inhibition reaches its midpoint. Low readings indicate greater potency in that assay, high ones weaker potency in that assay.

Regarding `C=CCn1cc(-c2ccc(NC(=O)Nc3cc(C(C)(C)C)on3)cc2)c2c(N)ncnc21`, the Activity result in [1] is given as “Non-Toxic”; in the series on MV4-11, 8.81%; with MOLM-13 [3], 15.5%; in the series with MOLM-13 [4], 23.5%; with MOLM-13 [5] it was 83.62%; in the series with MOLM-13 [6], 2.47%. The Activity was 15.5% in the series on MOLM-13 [8] and 3.01% with MOLM-13 [9]. This molecule gave an equilibrium dissociation constant (Kd) in series [2] of 4.37 nM. Moreover, the IC50 is above 1000 nM in the series with HL-60 and 7 nM in series [10]. For the same molecule, in the series on MOLM-13 [7], the viability at 10 µM worked out at 0.48%. For the same molecule, the fold change (FC) in the series listed under Homo sapiens was determined as 0.1.
